Bridge positions count the residues as written; N and C are the ends. Square brackets hold non-standard residues; d marks the D form. Peptide text beside a SMILES is read from it. * marks the point of attachment. X1 = CC[C@H](C)CCCCC(=O)*; Dab = NCC[C@H](N)C(=O)O
Assays:
[1] = Acute toxicity in BALB/c mouse liver assessed as infiltration of inflammatory cells at 10 to 40 mg/kg, ip administered as single dose measured for 7 days by H and E staining method; format: organism-based; conditions: in vivo, 168 h, dose 10-40 mg/kg, time 7 day
[2] = Acute toxicity in BALB/c mouse assessed as ruffled hairs at 10 to 20 mg/kg, ip administered as single dose measured for 7 days; format: organism-based; conditions: in vivo, 168 h, dose 10-20 mg/kg, time 7 day

Compound: CC[C@H](C)CCCCC(=O)N[C@@H](CCN)C(=O)N[C@H](C(=O)N[C@@H](CCN)C(=O)N[C@H]1CCNC(=O)[C@H]([C@@H](C)O)NC(=O)[C@H](CCN)NC(=O)[C@H](CCN)NC(=O)[C@H](CC(C)C)NC(=O)[C@@H](Cc2ccccc2)NC(=O)[C@H](CCN)NC1=O)[C@@H](C)O (X1-[Dab]T[Dab][Dab][Dab][dF]L[Dab][Dab]T; lactam 4-C)
- Activity [1]: Non-Toxic
- Activity [2]: Toxic
